Measurements reported in patent US7459449B2 (priority 2004, dated 2008).
Where a name gives a salt, the structure may show the parent alone. Read-outs that look alike come from different tables or passages of the source.

How the values were obtained:
[1] = Tendency to form solvates (acetone); type: physicochemical; details: generally acetone as the solvent
Excerpt: Additionally the inventive salts are not prone to forming solvates. Solvates with organic solvents such as acetone, dichloromethane, dioxane, etc., are inconvenient in pharmaceutical applications because of the toxicity of the solvent. […] A typical example of such a solvate salt is the acetone solvate of olanzapine succinate. The solvent may nevertheless be present in the wet cake of the crude material after isolation in solid state, but a solvent-free product should be obtained by ordinary means of drying. A solvent-free salt (i.e. less than 0.5%, preferably less than 0.1%, of the solvent present) is particularly preferred as the absence of the solvent is advantageous for pharmaceutical applications.

Stability against light = type: physicochemical
Hygroscopicity = type: physicochemical
[2] = Water solubility test at 10 mg/ml; details: thermodynamic from solid
[3] = cited from earlier work
[4] = Isolation of the olanzapine salt in solid form; type: physicochemical
[5] = Stability of 1% aqueous solution against precipitation; details: for Is 1% solution stable from precipitation?: 1% aqueous solution, at least 12 to 24 hours (overnight)
Excerpt: (§1) A failure was considered to be 1% or more of impurities being formed; i.e. if 1% or more formed, then the salt is reported as “No,” not stable, for the corresponding test.

[6] = Solid state stability (impurity formation on storage); type: physicochemical; details: short period of storage
Excerpt: as §1

Molecule	Is there low tendency to form solvates? [1]	Readily isolatable in solid form? [4]	Is 1% solution stable from precipitation? [5]	other results
Cc1cc2c(s1)Nc1ccccc1N=C2N1CCN(C)CC1.O=C(O)C(O)C(O)C(=O)O.O=C(O)C(O)C(O)C(=O)O [Di-L-tartrate, reference compound]	No	–	–	–
Cc1cc2c(s1)Nc1ccccc1N=C2N1CCN(C)CC1.O=C(O)C=CC(=O)O.O=C(O)C=CC(=O)O [Dimaleate, reference compound]	No	–	–	–
Cc1cc2c(s1)Nc1ccccc1N=C2N1CCN(C)CC1.Cc1cc2c(s1)Nc1ccccc1N=C2N1CCN(C)CC1.O=C(O)CCCCC(=O)O [Hemiadipate, Olanzapine Hemi-Adipate]	Yes	–	–	–
Cc1cc2c(s1)Nc1ccccc1N=C2N1CCN(C)CC1.Cc1cc2c(s1)Nc1ccccc1N=C2N1CCN(C)CC1.O=S(=O)(O)O [Hemisulfate, reference compound]	No	–	–	–
Cc1cc2c(s1)Nc1ccccc1N=C2N1CCN(C)CC1.O=C(O)CC(=O)O [Hydrogenmalonate, Olanzapine Hydrogenmalonate]	Yes	–	–	stability against the action of light (Stability against light): sufficiently stable against the action of light; hygroscopicity (Hygroscopicity): generally non-hygroscopic
CC(O)C(=O)O.Cc1cc2c(s1)Nc1ccccc1N=C2N1CCN(C)CC1 [Mono-L-lactate, Olanzapine Lactate]	Yes	–	–	–
Cc1cc2c(s1)Nc1ccccc1N=C2N1CCN(C)CC1.O=C(O)c1ccccc1 [Monobenzoate, Olanzapine Benzoate]	Yes	–	–	stability against the action of light (Stability against light): sufficiently stable against the action of light; hygroscopicity (Hygroscopicity): generally non-hygroscopic
CCS(=O)(=O)O.Cc1cc2c(s1)Nc1ccccc1N=C2N1CCN(C)CC1 [Monoesylate, Olanzapine Esylate]	Yes	–	–	–
Cc1cc2c(s1)Nc1ccccc1N=C2N1CCN(C)CC1 [Monohydrochloride, Olanzapine Monohydrochloride]	–	–	–	solubility [2]: > 10000 µg/mL
Cc1cc2c(s1)Nc1ccccc1N=C2N1CCN(C)CC1.O=S(=O)(O)O [Monosulfate, Olanzapine Hydrogensulfate]	No	–	–	–
Cc1cc2c(s1)Nc1ccccc1N=C2N1CCN(C)CC1.O.O=C(O)c1cc2ccccc2c(Cc2c(O)c(C(=O)O)cc3ccccc23)c1O [Pamoate, olanzapine pamoate, reference compound]	No	–	–	water solubility (in words), background [3]: insoluble in water
Mandelate [reference compound]	–	No	–	–
Olanzapine	–	–	–	water solubility (in words), background [3]: insoluble in water; solubility at pH 6.8 ([3]; pH 6.8, marketed free base): 0.02 mg/ml
Olanzapine Acetate [Monoacetate]	Yes	Yes	No	–
Olanzapine Besylate [Monobesylate]	Yes	Yes	No	–
Olanzapine Hemi-Succinate [Hemisuccinate]	No	Yes	No	–
Olanzapine Hemifumarate	No	Yes	No	–
Olanzapine Hydrogenmaleate	Yes	Yes	No	stability against the action of light (Stability against light): sufficiently stable against the action of light; hygroscopicity (Hygroscopicity): generally non-hygroscopic; hydrolysis by water (liberation of olanzapine base in aqueous solution) ([5]; aqueous solution): hydrolysable by water; water solubility (in words) (listed as maleate): good water solubility; water solubility (in words) (listed as olanzapine hydrogenmaleate): soluble in water
Olanzapine Mesylate [Monomesylate]	No	Yes	No	–
Olanzapine Mono-Tartrate [Mono-L-tartrate]	No	Yes	Yes	–
Tosylate [reference compound]	–	No	–	–
olanzapine dibesylate [reference compound]	–	Yes**	–	solid state behaviour on storage [6]: become oily after a short period of storage
olanzapine dimesylate [reference compound]	–	Yes**	–	solid state behaviour on storage [6]: become oily after a short period of storage
